Reference: PubChem BioAssay (NCI)
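All cell lines were grown in 96-well plates and treated with compound for 48 hours. TGI is the concentration that stops growth completely.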 Where a SMILES comes first, the peptide text is derived from it. The star is where a group is joined. X36 = O=C(c1ccc(-c2ccc(Cl)cc2Cl)o1)*

Tests used:
Assay in all cases: NCI tumour cell line growth inhibition, 48 h
[1] = system: CCRF-CEM leukemia
[2] = system: OVCAR-8 ovarian
[3] = system: HOP-92 NSCLC
[4] = system: OVCAR-3 ovarian
[5] = system: BT-549 breast
[6] = system: SK-MEL-2 melanoma
[7] = system: COLO 205 colon
[8] = system: HL-60(TB) leukemia
[9] = system: OVCAR-5 ovarian
[10] = system: IGROV1 ovarian
[11] = system: UACC-257 melanoma
[12] = system: A549 NSCLC
[13] = system: SK-OV-3 ovarian
[14] = system: MDA-N
[15] = system: SNB-19 CNS
[16] = system: ACHN renal
[17] = system: EKVX NSCLC
[18] = system: MDA-MB-231 breast
[19] = system: U251 CNS
[20] = system: M14 melanoma
[21] = system: SNB-75 CNS
[22] = system: HCT-116 colon
[23] = system: SF-268 CNS
[24] = system: SK-MEL-5 melanoma
[25] = system: SF-539 CNS
[26] = system: MOLT-4 leukemia
[27] = system: NCI-H460 lung
[28] = system: TK-10 renal
[29] = system: A498 renal
[30] = system: MALME-3M melanoma
[31] = system: SW-620 colon
[32] = system: PC-3 prostate
[33] = system: OVCAR-4 ovarian
[34] = system: SF-295 CNS
[35] = system: CAKI-1 renal
[36] = system: RPMI-8226 leukemia
[37] = system: DU-145 prostate
[38] = system: NCI-H522 lung
[39] = system: UACC-62 melanoma
[40] = system: NCI/ADR-RES ovarian
[41] = system: NCI-H23 lung
[42] = system: KM12 colon
[43] = system: HT29 colon
[44] = system: T-47D breast
[45] = system: HS 578T breast
[46] = system: SR leukemia
[47] = system: RXF 393 renal
[48] = system: 786-0 renal
[49] = system: HOP-62 NSCLC
[50] = system: SN12C renal
[51] = system: LOX IMVI melanoma
[52] = system: MCF7 breast
[53] = system: HCT-15 colon
[54] = system: HCC-2998 colon
[55] = system: NCI-H226 lung
[56] = system: MDA-MB-435
[57] = system: SK-MEL-28 melanoma
[58] = system: UO-31 renal
[59] = system: K-562 leukemia

Work on `CCC(C)C(NC(=O)CNC(=O)C(Cc1ccccc1)NC(=O)C1CCCN1C(=O)c1ccc(-c2ccc(Cl)cc2Cl)o1)C(=O)OC` (stereo not drawn) (X36-PFGI-OMe; configuration not given here) yielded a TGI [1] of over 100 µM, a TGI [2] of over 100 µM and a TGI [3] of 41.9 µM. It also gave a TGI [4] of over 100 µM, a TGI [5] of over 100 µM and a TGI [6] of over 100 µM. For the same compound, the TGI [7] was over 100 µM, the TGI [8] was over 100 µM and the TGI [9] was over 100 µM. The TGI [10] was over 100 µM, the TGI [11] was 67.2 µM and the TGI [12] was over 100 µM. For the same compound, the TGI [13] was over 100 µM, the TGI [14] was over 100 µM and the TGI [15] was over 100 µM. For the same compound, the TGI [16] was over 100 µM, the TGI [17] was 89.9 µM and the TGI [18] was over 100 µM. For the same compound, the TGI [19] was 93.5 µM, the TGI [20] was over 100 µM and the TGI [21] was 69.4 µM. The TGI [22] was over 100 µM, the TGI [23] was over 100 µM and the TGI [24] was 45.6 µM. It also gave a TGI [25] of 86.6 µM, a TGI [26] of over 100 µM and a TGI [27] of over 100 µM. For the same compound, the TGI [28] was over 100 µM, the TGI [29] was 54.4 µM and the TGI [30] was over 100 µM. The TGI [31] was over 100 µM, the TGI [32] was 49.1 µM and the TGI [33] was over 100 µM. For the same compound, the TGI [34] was over 100 µM, the TGI [35] was over 100 µM and the TGI [36] was over 100 µM. It also gave a TGI [37] of over 100 µM, a TGI [38] of over 100 µM and a TGI [39] of over 100 µM. It also gave a TGI [40] of over 100 µM, a TGI [41] of over 100 µM and a TGI [42] of over 100 µM. The TGI [43] was over 100 µM, the TGI [44] was over 100 µM and the TGI [45] was over 100 µM. It also gave a TGI [46] of 95.6 µM, a TGI [47] of over 100 µM and a TGI [48] of over 100 µM. For the same compound, the TGI [49] was over 100 µM, the TGI [50] was 82.6 µM and the TGI [51] was over 100 µM. For the same compound, the TGI [52] was over 100 µM, the TGI [53] was over 100 µM and the TGI [54] was 64 µM. For the same compound, the TGI [55] was over 100 µM, the TGI [56] was over 100 µM and the TGI [57] was over 100 µM. The TGI [58] was over 100 µM and the TGI [59] was over 100 µM.

`Cc1ccc([C@H]2CC(=O)C[C@H](c3ccc(C)cc3)C23C(=O)c2ccccc2C3=O)cc1` showed a TGI [1] of 59.9 µM, a TGI [2] of over 100 µM and a TGI [3] of 49.7 µM. The TGI [4] was over 100 µM, the TGI [5] was over 100 µM and the TGI [6] was over 100 µM. The TGI [7] was over 100 µM, the TGI [8] was 33.2 µM and the TGI [9] was over 100 µM. For the same compound, the TGI [10] was over 100 µM, the TGI [11] was 49.7 µM and the TGI [12] was over 100 µM. For the same compound, the TGI [13] was over 100 µM, the TGI [14] was over 100 µM and the TGI [15] was 79.7 µM. It also gave a TGI [16] of over 100 µM, a TGI [17] of over 100 µM and a TGI [18] of over 100 µM. It also gave a TGI [19] of 35.6 µM, a TGI [20] of over 100 µM and a TGI [21] of 34.1 µM. It also gave a TGI [22] of over 100 µM, a TGI [23] of over 100 µM and a TGI [24] of over 100 µM. For the same compound, the TGI [25] was over 100 µM, the TGI [26] was over 100 µM and the TGI [27] was over 100 µM. It also gave a TGI [28] of over 100 µM, a TGI [29] of over 100 µM and a TGI [30] of over 100 µM. For the same compound, the TGI [31] was over 100 µM, the TGI [32] was 84.5 µM and the TGI [33] was 47.2 µM. The TGI [34] was 51.9 µM, the TGI [35] was over 100 µM and the TGI [36] was over 100 µM. It also gave a TGI [37] of over 100 µM, a TGI [38] of 26.5 µM and a TGI [39] of over 100 µM. It also gave a TGI [40] of 30.2 µM, a TGI [41] of over 100 µM and a TGI [42] of over 100 µM. The TGI [43] was over 100 µM, the TGI [44] was over 100 µM and the TGI [45] was 58.7 µM. It also gave a TGI [46] of 34.3 µM, a TGI [47] of 39 µM and a TGI [48] of 31.7 µM. It also gave a TGI [49] of 41.8 µM, a TGI [50] of over 100 µM and a TGI [51] of over 100 µM. It also gave a TGI [52] of over 100 µM, a TGI [53] of over 100 µM and a TGI [54] of over 100 µM. The TGI [55] was over 100 µM, the TGI [56] was over 100 µM and the TGI [57] was over 100 µM. For the same compound, the TGI [58] was over 100 µM and the TGI [59] was over 100 µM.
